Data on five compounds can be found in US20260250312A1, “ANTIBACTERIAL COMPOUNDS ELIMINATING DORMANT BACTERIAL CELLS” (UNIVERSITÉ D'AIX-MARSEILLE, priority 2022, published 2026).

Several values for one entry are separate records, joined by “and”; a condition that tells them apart may be missing. Identical values can stand only once.

Assay [1] deals with Staphylococcus aureus (ATCC25923). The assay is described as follows: Microdilution MIC assay (CLSI-based), S. aureus. The format is cell-based. The following applies: Staphylococcus aureus, ATCC25923, 20 h, 20 hours incubation at 35-37° C., MHB; read-out: Minimum inhibitory concentration S. aureus ATCC25923. The method, boiled down:
(§1)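 Broth microdilution per modified CLSI guidelines in Mueller Hinton broth, 200 μL, inoculum ca. 5×10^5 CFU/mL; compounds tested as salts, twofold dilutions from 0.2 mg/mL, in triplicate. MIC determined from OD at 620 nm after incubation.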
A general note: In broth dilution the organism is exposed to a series of concentrations in liquid medium.

The test system of assay [2] is Enterococcus faecalis (ATCC29212). The experiment in a line: Microdilution MIC assay (CLSI-based), E. faecalis. The format is cell-based. To be noted: Enterococcus faecalis, ATCC29212, 20 h, 20 hours incubation at 35-37° C., MHB; read-out: Minimum inhibitory concentration E. faecalis ATCC29212. The method, boiled down:
as §1

Assay [3] relates to Escherichia coli (ATCC28922). The assay is described as follows: Microdilution MIC assay (CLSI-based), E. coli. The format is cell-based. To be noted: Escherichia coli, ATCC28922, 20 h, 20 hours incubation at 35-37° C., MHB; read-out: Minimum inhibitory concentration E. coli ATCC28922. The method, boiled down: as §1
The test system of assay [4] is Pseudomonas aeruginosa (ATCC27853). The experiment in a line: Microdilution MIC assay (CLSI-based), P. aeruginosa. To be noted: Pseudomonas aeruginosa, ATCC27853, 20 h, 20 hours incubation at 35-37° C., MHB; read-out: Minimum inhibitory concentration P. aeruginosa ATCC27853. The format is cell-based. The method, boiled down: as §1
The subject of assay [5] is CHO-K1 cells. The assay is described as follows: WST1 cytotoxicity test. To be noted: Cricetulus griseus, CHO-K1, 24 h, WST1, 24 hours at 37° C.; read-out: IC50 CHO. Format: cell-based, Chinese hamster. The method, boiled down:
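CHO-K1 cells pre-cultured 24 h, then exposed 24 h at 37 °C to increasing compound concentrations. Viability read as WST-1 formazan absorbance at 450 nm after 20 min; dose-response fitted by nonlinear regression.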
On the technique in general: Formazan colour is commonly taken as a measure of viable cells.

In the case of `COC(=O)[C@H](CC(C)C)NC(=O)CC[C@@H](C)[C@H]1CCC2C3C(CC[C@@]21C)[C@@]1(C)CC[C@H](NCCCNCCNCCCN)C[C@H]1C[C@H]3O` (stereo partly drawn) [Compound S035, methyl ((4R)-4-((3S,5S,7R,10S,13R,17R)-3-((3-((2-((3-aminopropyl)amino)ethyl)amino)propyl)amino)-7-hydroxy-10,13-dimethylhexadecahydro-1H-cyclopenta[a]phenanthren-17-yl)pentanoyl)-L-leucinate], the MIC is 12.5 µM and 8 µg/mL in assay [1]; 12.5 µM and 8 µg/mL in assay [2]; 12.5 µM and 8 µg/mL in assay [3]; 12.5 µM and 8 µg/mL in assay [4]. Besides, the concentration for half-maximal inhibition (IC50) – broadly, the point on the concentration scale where inhibition reaches its midpoint – in assay [5] was 45.2 µM and 30.6 µg/mL.
Take `COC(=O)[C@H](NC(=O)CC[C@@H](C)[C@H]1CCC2C3C(CC[C@@]21C)[C@@]1(C)CC[C@H](NCCCN)C[C@H]1C[C@H]3O)C(C)C` (stereo partly drawn) [Compound S018, methyl ((4R)-4-((3S,5S,7R,10S,13R,17R)-3-((3-aminopropyl)amino)-7-hydroxy-10,13-dimethylhexadecahydro-1H-cyclopenta[a]phenanthren-17-yl)pentanoyl)-D-valinate]: the MIC in assay [1] was 50 µM and 32 µg/mL; in assay [2] it was 100 µM and 64 µg/mL; in assay [3], 200 µM and 128 µg/mL; in assay [4] it was 200 µM and 128 µg/mL. Further, in assay [5], the IC50 is 10.9 µM and 6.1 µg/mL.
Turning to `COC(=O)[C@H](Cc1ccccc1)NC(=O)CC[C@@H](C)[C@H]1CCC2C3C(CC[C@@]21C)[C@@]1(C)CC[C@H](NCCCNCCNCCCN)C[C@H]1C[C@H]3O` (stereo partly drawn) [Compound S029, methyl ((4R)-4-((3S,5S,7R,10S,13R,17R)-3-((3-((2-((3-aminopropyl)amino)ethyl)amino)propyl)amino)-7-hydroxy-10,13-dimethylhexadecahydro-1H-cyclopenta[a]phenanthren-17-yl)pentanoyl)-L-phenylalaninate], the MIC in assay [1] is 12.5 µM and 8 µg/mL; in assay [2] it was 12.5 µM and 8 µg/mL; in assay [3] it was 50 µM and 32 µg/mL; in assay [4], 50 µM and 32 µg/mL. For the same compound, the IC50 in assay [5] is 47.8 µM and 33.9 µg/mL.
As for `COC(=O)[C@H](NC(=O)CC[C@@H](C)[C@H]1CCC2C3C(CC[C@@]21C)[C@@]1(C)CC[C@H](NCCN)C[C@H]1C[C@H]3O)C(C)C` (stereo partly drawn) [Compound S008, methyl ((4R)-4-((3S,5S,7R,10S,13R,17R)-3-((2-aminoethyl)amino)-7-hydroxy-10,13-dimethylhexadecahydro-1H-cyclopenta[a]phenanthren-17-yl)pentanoyl)-D-valinate], the MIC in assay [1] was 25 µM and 16 µg/mL; in assay [2] it was 25 µM and 16 µg/mL; in assay [3], 25 µM and 16 µg/mL; in assay [4], 200 µM and 128 µg/mL. Moreover, the IC50 in assay [5] is 86 µM and 47.1 µg/mL.
Take `COC(=O)[C@@H](Cc1ccccc1)NC(=O)CC[C@@H](C)[C@H]1CCC2C3C(CC[C@@]21C)[C@@]1(C)CC[C@H](NCCCNCCCN)C[C@H]1C[C@H]3O` (stereo partly drawn) [Compound S028, methyl ((4R)-4-((3S,5S,7R,10S,13R,17R)-3-((3-((3-aminopropyl)amino)propyl)amino)-7-hydroxy-10,13-dimethylhexadecahydro-1H-cyclopenta[a]phenanthren-17-yl)pentanoyl)-D-phenylalaninate]: the MIC is 12.5 µM and 8 µg/mL in assay [1]; 12.5 µM and 8 µg/mL in assay [2]; 6.25 µM and 4 µg/mL in assay [3]; 50 µM and 32 µg/mL in assay [4]. Further, the IC50 in assay [5] is 54.6 µM and 36.4 µg/mL.
